The values below are quoted from earlier work in US20190167612A1, “PHARMACEUTICAL FORMULATION FOR ORAL ADMINISTRATION WITH CONTROLLED DISSOLUTION RATE COMPRISING SUSTAINED-RELEASE PELLETS CONTAINING TAMSULOSIN HYDROCHLORIDE” (HANMl PHARM. CO., LTD., priority 2016, published 2019).

Counter-ions that a name gives are not always drawn. Bounds are passed on as bounds.

The conditions of series [1]: in vivo.

In the case of `CCOc1ccccc1OCCN[C@H](C)Cc1ccc(OC)c(S(N)(=O)=O)c1` [Tamsulosin hydrochloride, (R)-5-[2-[[2-(2-ethoxyphenoxy)ethyl]-amino]propyl]-2-methoxy-benzenesulfonamide], the Solubility in water result was “slight solubility in water”. Moreover, the Bioavailability in series [1] is reported as no less than 90%.
